The target of assay [1] is T1, Polyunsaturated fatty acid 5-lipoxygenase (Homo sapiens, UniProt P09917).
T1 sequence (P09917 whole entry): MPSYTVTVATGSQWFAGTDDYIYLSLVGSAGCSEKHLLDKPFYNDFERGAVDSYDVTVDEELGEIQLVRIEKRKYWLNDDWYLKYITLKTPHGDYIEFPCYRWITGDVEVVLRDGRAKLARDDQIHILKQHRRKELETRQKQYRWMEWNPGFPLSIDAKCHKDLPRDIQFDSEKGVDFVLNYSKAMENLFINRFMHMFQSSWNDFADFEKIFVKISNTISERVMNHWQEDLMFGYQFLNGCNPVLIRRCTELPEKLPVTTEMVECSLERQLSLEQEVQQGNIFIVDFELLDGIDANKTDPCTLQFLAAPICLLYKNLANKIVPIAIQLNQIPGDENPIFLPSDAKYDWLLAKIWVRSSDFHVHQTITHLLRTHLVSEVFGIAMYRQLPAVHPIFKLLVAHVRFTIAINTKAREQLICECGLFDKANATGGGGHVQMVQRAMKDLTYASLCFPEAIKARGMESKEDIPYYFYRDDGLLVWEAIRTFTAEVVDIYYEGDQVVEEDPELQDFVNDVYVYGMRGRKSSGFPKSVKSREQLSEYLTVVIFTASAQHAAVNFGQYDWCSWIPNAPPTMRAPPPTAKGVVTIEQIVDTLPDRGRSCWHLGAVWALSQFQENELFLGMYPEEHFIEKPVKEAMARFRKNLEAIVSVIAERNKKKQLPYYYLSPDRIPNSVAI
Kind of assay: Inhibition of [14C]arachidonic acid conversion to 5-HETE by broken cell 5-LO isolated from guinea pig PMN; not active at the highest concentration (3 ug/mL) tested; No activity. Format: functional, Cavia porcellus. To be noted: target entry is the homologue from another species.

The species entered for assay [2] is Oryctolagus cuniculus. As to the kind of experiment: The ability to inhibit iron-dependent lipid peroxidation of rabbit brain homogenate; not active at the highest concentration (30 ug/mL) tested; No activity. The format is functional.

This note sets out measurements from ChEMBL document CHEMBL1126332 (Bioorg Med Chem Lett, 1992).

The source made the active and inactive calls. The rule behind the calls is not given here.

Regarding `CC1=NN(CCOc2ccc3ccccc3c2)C(=O)C1(C)C`, the IC50 result in assay [1] is given as “Not Active”. Besides, the MIC entry in assay [2] is “inactive”.
